Experimental data published in US4337199A, “Antibiotic β-lactam compounds, production thereof, and their use as antimicrobial agent” (Sanraku-Ocean Co., Ltd., priority 1978, dated 1982).
Values after ≈ are worked out from the molar mass of the structure shown.

Columns and labels:
Alcaligenes faecalis A 1 = assay: minimum inhibitory concentration, agar dilution assay; format: cell-based; conditions: A1, agar dilution, 35° C., 20 hours, read-out: minimum inhibitory concentration
Procedure: (§1) The antibiotic activities shown in Tables I-1 to I-8 above were determined in the following manner.
(§2) The minimum inhibitory concentrations of the compounds of formula (I-a-1) or (I-b-1) in Tables I-1 to I-7 and the known compounds in Table I-8 on the various microorganisms shown in the above tables were measured by an agar dilution assay method using a brain heart infusion agar medium "Difco" (a product of Difco Laboratories Inc.)
(§3) A sample of the test compound was dissolved in sterile distilled water and diluted to prepare a two-fold dilution series of the compound solution. In a petri plate of 9 cm diameter, 1 ml of the compound solution was added to 9 ml of molten sterile heart infusion agar medium (Difco Laboratories Inc.) at about 60° C. to prepare the compound-containing agar plate. An overnight culture of each test organism indicated in the above table which was prepared by stationary cultivation in Trypto-Soy broth (Eiken Chemi. Co., Ltd.) at 35° C. for 18 to 20 hours, was diluted with the Trypto-Soy broth to give approximately 10^8 cells/ml and the diluted inoculum was inoculated onto the compound-containing agar plates. After cultivating the plates at 35° C. for 20 hours, the growth of the organism was observed. The minimum concentration of the compound at which no growth of the microorganism was noted was determined, and defined as the minimum inhibitory concentration of the test compound.

[1] = system: Bacillus subtilis ATCC 6633; assay: as above; format: cell-based; conditions: ATCC6633, agar dilution, 35° C., 20 hours, read-out: minimum inhibitory concentration
Procedure: as §1, §2, §3

[2] = system: Citrobacter freundii GN 346; assay: as above; format: cell-based; conditions: GN346, agar dilution, 35° C., 20 hours, read-out: minimum inhibitory concentration
Procedure: as §1, §2, §3

[3] = system: Comamonas terrigena B-996; assay: as above; format: cell-based; conditions: B996, agar dilution, 35° C., 20 hours, read-out: minimum inhibitory concentration
Procedure: as §1, §2, §3

[4] = system: Enterobacter aerogenes E19; assay: as above; format: cell-based; conditions: Klebsiella aerogenes, E19; agar dilution, 35° C., 20 hours; read-out: minimum inhibitory concentration
Procedure: as §1, §2, §3

Enterobacter cloacae 45 = assay: as above; format: cell-based; conditions: Enterobacter cloacae, 45; agar dilution, 35° C., 20 hours; read-out: minimum inhibitory concentration
Procedure: as §1, §2, §3

Enterobacter sp. E8 = assay: as above; format: cell-based; conditions: SP.E8, agar dilution, 35° C., 20 hours, read-out: minimum inhibitory concentration
Procedure: as §1, §2, §3

Escherichia coli K-12 = assay: as above; format: cell-based; conditions: K12, agar dilution, 35° C., 20 hours, read-out: minimum inhibitory concentration
Procedure: as §1, §2, §3

Escherichia coli RGN 823 = assay: as above; format: cell-based; conditions: RGN823, agar dilution, 35° C., 20 hours, read-out: minimum inhibitory concentration
Procedure: as §1, §2, §3

[5] = system: Klebsiella pneumoniae K-13; assay: as above; format: cell-based; conditions: K13, agar dilution, 35° C., 20 hours, read-out: minimum inhibitory concentration
Procedure: as §1, §2, §3

Proteus mirabilis P6 = assay: as above; format: cell-based; conditions: P6, agar dilution, 35° C., 20 hours, read-out: minimum inhibitory concentration
Procedure: as §1, §2, §3

Proteus rettgeri P7 = assay: as above; format: cell-based; conditions: Providencia rettgeri, P7; agar dilution, 35° C., 20 hours; read-out: minimum inhibitory concentration
Procedure: as §1, §2, §3

Proteus sp. P22 = assay: as above; format: cell-based; conditions: agar dilution, 35° C., 20 hours; read-out: minimum inhibitory concentration
Procedure: as §1, §2, §3

Proteus vulgaris GN76 = assay: as above; format: cell-based; conditions: GN76, agar dilution, 35° C., 20 hours, read-out: minimum inhibitory concentration
Procedure: as §1, §2, §3

Providencia sp. P8 = assay: as above; format: cell-based; conditions: SP.P8, agar dilution, 35° C., 20 hours, read-out: minimum inhibitory concentration
Procedure: as §1, §2, §3

[6] = system: Pseudomonas aeruginosa IFO3445; assay: as above; format: cell-based; conditions: IFO3445, agar dilution, 35° C., 20 hours, read-out: minimum inhibitory concentration
Procedure: as §1, §2, §3

[7] = system: Pseudomonas aeruginosa NCTC10490; assay: as above; format: cell-based; conditions: NCTC10490, agar dilution, 35° C., 20 hours, read-out: minimum inhibitory concentration
Procedure: as §1, §2, §3

Sarcina lutea = assay: as above; format: cell-based; conditions: Micrococcus luteus; agar dilution, 35° C., 20 hours; read-out: minimum inhibitory concentration
Procedure: as §1, §2, §3

Serratia marcescens S18 = assay: as above; format: cell-based; conditions: S18, agar dilution, 35° C., 20 hours, read-out: minimum inhibitory concentration
Procedure: as §1, §2, §3

Serratia marcescens T55 = assay: as above; format: cell-based; conditions: T55, agar dilution, 35° C., 20 hours, read-out: minimum inhibitory concentration
Procedure: as §1, §2, §3

[8] = system: Staphylococcus aureus FDA 209P; assay: as above; format: cell-based; conditions: FDA209P, agar dilution, 35° C., 20 hours, read-out: minimum inhibitory concentration
Procedure: as §1, §2, §3

[9] = system: Staphylococcus aureus Russell; assay: as above; format: cell-based; conditions: agar dilution, 35° C., 20 hours, read-out: minimum inhibitory concentration
Procedure: as §1, §2, §3

[10] = system: Staphylococcus aureus Smith; assay: as above; format: cell-based; conditions: agar dilution, 35° C., 20 hours, read-out: minimum inhibitory concentration
Procedure: as §1, §2, §3

[11] = system: Staphylococcus epidermidis; assay: as above; format: cell-based; conditions: agar dilution, 35° C., 20 hours, read-out: minimum inhibitory concentration
Procedure: as §1, §2, §3

[12] = system: Gram-positive and Gram-negative bacteria; assay: antibiotic activity (antimicrobial spectrum); format: cell-based; conditions: comparison in words
Procedure: as §2, §3

[13] = system: Staphylococcus aureus Smith strain; assay: Infection treating test; format: in vivo, Staphylococcus aureus (in ddy male mice); conditions: sc, 2 h, mice infected intraperitoneally, 5×10^5 cells per mouse, subcutaneous, two hours after infection, read-out: CD50 (the source's name)
Procedure: The in vivo activities of the compounds of formula (I-d) were determined by using mice (five per group, ddy male mice, Shizuoka) which had been intraperitoneally infected with Staphylococcus aureus Smith strain in an amount of 5×10^5 cells per mouse. Two hours after the infection, an injection containing a sodium salt of each of the compounds of formula (I-d) was subcutaneously administered to the mice.

CC(=O)NCCSC1=C(C(=O)O)N2C(=O)C(C(C)C)C2C1 (stereo not shown) [PS-6, 3-(2-acetamidoethylthio)-6-isopropyl-7-oxo-1-azabicyclo[3.2.0]hept-2-ene-2-carboxylic acid, reference compound]
MIC (Alcaligenes faecalis A 1): 1.56 mg/L (≈ 4.99 µM)
MIC [1]: 0.78 mg/L (≈ 2.5 µM)
MIC [2]: 12.5 mg/L (≈ 40 µM)
MIC [3]: 0.1 mg/L (≈ 0.32 µM)
MIC [4]: 25 mg/L (≈ 80 µM)
MIC (Enterobacter cloacae 45): 25 mg/L (≈ 80 µM)
MIC (Enterobacter sp. E8): 6.25 mg/L (≈ 20 µM)
MIC (Escherichia coli K-12): 6.25 mg/L (≈ 20 µM)
MIC (Escherichia coli RGN 823): 6.25 mg/L (≈ 20 µM)
MIC [5]: 25 mg/L (≈ 80 µM)
MIC (Proteus mirabilis P6): 12.5 mg/L (≈ 40 µM)
MIC (Proteus rettgeri P7): 6.25 mg/L (≈ 20 µM)
MIC (Proteus sp. P22): 25 mg/L (≈ 80 µM)
MIC (Proteus vulgaris GN76): 12.5 mg/L (≈ 40 µM)
MIC (Providencia sp. P8): 6.25 mg/L (≈ 20 µM)
MIC [6]: 50 mg/L (≈ 160 µM)
MIC [7]: 50 mg/L (≈ 160 µM)
MIC (Sarcina lutea): 0.39 mg/L (≈ 1.25 µM)
MIC (Serratia marcescens S18): 25 mg/L (≈ 80 µM)
MIC (Serratia marcescens T55): 50 mg/L (≈ 160 µM)
MIC [8]: 0.1 mg/L (≈ 0.32 µM)
MIC [9]: 0.2 mg/L (≈ 0.64 µM)
MIC [10]: 0.2 mg/L (≈ 0.64 µM)
MIC [11]: 0.39 mg/L (≈ 1.25 µM)
antibiotic activity (in words) [12]: better antibiotic activity than cephazolin (CEZ)

CC(=O)NCCSC1=C(C(=O)O)N2C(=O)C(C(C)O)C2C1 (stereo not shown) [PS-3, 3-(2-acetamidoethylthio)-6-(1-hydroxyethyl)-7-oxo-1-azabicyclo[3.2.0]hept-2-ene-2-carboxylic acid]
antibiotic activity (in words) [12]: better antibiotic activity than cephazolin (CEZ)

CC(O)C1C(=O)N2C(C(=O)O)=C(Sc3ccncc3)CC12 (stereo not drawn) [Example 60, 5,6-cis-3-(4-Pyridylthio)-6-(1-hydroxyethyl)-7-oxo-1-azabicyclo[3.2.0]hept-2-ene-2-carboxylic acid]
MIC (Alcaligenes faecalis A 1): < 0.007 mg/L
MIC [1]: < 0.007 mg/L
MIC [2]: 6.25 mg/L (≈ 20.4 µM)
MIC [3]: < 0.007 mg/L
MIC [4]: 1.56 mg/L (≈ 5.09 µM)
MIC (Enterobacter cloacae 45): 6.25 mg/L (≈ 20.4 µM)
MIC (Enterobacter sp. E8): 0.025 mg/L (≈ 0.0816 µM)
MIC (Escherichia coli K-12): 0.05 mg/L (≈ 0.163 µM)
MIC (Escherichia coli RGN 823): 6.25 mg/L (≈ 20.4 µM)
MIC [5]: 25 mg/L (≈ 81.6 µM)
MIC (Proteus mirabilis P6): 0.39 mg/L (≈ 1.27 µM)
MIC (Proteus rettgeri P7): 0.78 mg/L (≈ 2.55 µM)
MIC (Proteus sp. P22): 50 mg/L (≈ 163 µM)
MIC (Proteus vulgaris GN76): 50 mg/L (≈ 163 µM)
MIC (Providencia sp. P8): 0.2 mg/L (≈ 0.653 µM)
MIC [6]: 1.56 mg/L (≈ 5.09 µM)
MIC [7]: 1.56 mg/L (≈ 5.09 µM)
MIC (Sarcina lutea): < 0.007 mg/L
MIC (Serratia marcescens S18): 50 mg/L (≈ 163 µM)
MIC (Serratia marcescens T55): 25 mg/L (≈ 81.6 µM)
MIC [8]: < 0.007 mg/L
MIC [9]: < 0.007 mg/L
MIC [10]: < 0.007 mg/L
MIC [11]: < 0.007 mg/L
ED50 [13]: 0.125 mg/kg

CC(=O)NCCSC1=C(C(=O)O)N2C(=O)C(C(C)O)C2C1 (stereo not shown) [PS-3B . Na, reference compound]
ED50 [13]: 2 mg/kg
